In PubChem BioAssay (NCI):
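At the GI50, growth is halved. Definition used: TGI = concentration required for complete inhibition of growth.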

Columns and labels:
Assay in all cases: NCI-60 cell line screen, 384-well format
[1] = tested on: OVCAR-5 ovarian
[2] = tested on: NCI-H226 lung
[3] = tested on: HL-60(TB) leukemia
[4] = tested on: SK-MEL-2 melanoma
[5] = tested on: A498 renal
[6] = tested on: HOP-62 NSCLC
[7] = tested on: NCI-H460 NSCLC
[8] = tested on: MDA-MB-435 melanoma
[9] = tested on: A549 NSCLC
[10] = tested on: SF-268 CNS
[11] = tested on: LOX IMVI melanoma
[12] = tested on: UO-31 renal
[13] = tested on: U251 glioblastoma
[14] = tested on: SF-539 CNS
[15] = tested on: SNB-75 CNS
[16] = tested on: MCF7 breast
[17] = tested on: NCI-H522 lung
[18] = tested on: NCI-H322M lung
[19] = tested on: MOLT-4 leukemia
[20] = tested on: HCC-2998 colon
[21] = tested on: PC-3 prostate
[22] = tested on: MDA-MB-231 breast
[23] = tested on: RPMI-8226 leukemia
[24] = tested on: CAKI-1 renal
[25] = tested on: SW-620 colon
[26] = tested on: SNB-19 CNS
[27] = tested on: OVCAR-8 ovarian
[28] = tested on: HCT-116 colon
[29] = tested on: HS 578T breast
[30] = tested on: BT-549 breast
[31] = tested on: KM12 colon
[32] = tested on: EKVX NSCLC
[33] = tested on: IGROV1 ovarian
[34] = tested on: TK-10 renal
[35] = tested on: SF-295 CNS
[36] = tested on: OVCAR-3 ovarian
[37] = tested on: M14 melanoma
[38] = tested on: CCRF-CEM leukemia
[39] = tested on: HCT-15 colon
[40] = tested on: RXF 393 renal
[41] = tested on: SK-OV-3 ovarian
[42] = tested on: MALME-3M melanoma
[43] = tested on: SK-MEL-28 melanoma
[44] = tested on: UACC-257 melanoma
[45] = tested on: NCI/ADR-RES ovarian
[46] = tested on: HOP-92 NSCLC
[47] = tested on: SN12C renal
[48] = tested on: SK-MEL-5 melanoma
[49] = tested on: K-562 leukemia
[50] = tested on: NCI-H23 lung
[51] = tested on: HT29 colon
[52] = tested on: 786-0 renal
[53] = tested on: UACC-62 melanoma
[54] = tested on: OVCAR-4 ovarian
[55] = tested on: MDA-MB-468 breast
[56] = tested on: T-47D breast
[57] = tested on: COLO 205 colon
[58] = tested on: ACHN renal
[59] = tested on: DU-145 prostate

Cn1cc(-c2ccc(=O)n(Cc3cccc(-c4ncc(OCCN5CCOCC5)cn4)c3)n2)cn1
GI50 [1]: > 100 µM | TGI [1]: > 100 µM | GI50 [2]: 28.9 µM | TGI [2]: > 100 µM | GI50 [3]: 35.8 µM | TGI [3]: 94.6 µM | GI50 [4]: > 100 µM | TGI [4]: > 100 µM | GI50 [5]: > 100 µM | TGI [5]: > 100 µM | GI50 [6]: 23.7 µM | TGI [6]: 98.6 µM | GI50 [7]: 72 µM | TGI [7]: > 100 µM | GI50 [8]: > 100 µM | TGI [8]: > 100 µM | GI50 [9]: > 100 µM | TGI [9]: > 100 µM | GI50 [10]: > 100 µM | TGI [10]: > 100 µM | GI50 [11]: 37.6 µM | TGI [11]: > 100 µM | GI50 [12]: > 100 µM | TGI [12]: > 100 µM | GI50 [13]: 64.2 µM | TGI [13]: > 100 µM | GI50 [14]: > 100 µM | TGI [14]: > 100 µM | GI50 [15]: 98.9 µM | TGI [15]: > 100 µM | GI50 [16]: 48.6 µM | TGI [16]: > 100 µM | GI50 [17]: 62.6 µM | TGI [17]: > 100 µM | GI50 [18]: > 100 µM | TGI [18]: > 100 µM | GI50 [19]: 18.6 µM | TGI [19]: 37.1 µM | GI50 [20]: > 100 µM | TGI [20]: > 100 µM | GI50 [21]: 67.8 µM | TGI [21]: > 100 µM | GI50 [22]: > 100 µM | TGI [22]: > 100 µM | GI50 [23]: 24.9 µM | TGI [23]: > 100 µM | GI50 [24]: 82.5 µM | TGI [24]: > 100 µM | GI50 [25]: > 100 µM | TGI [25]: > 100 µM | GI50 [26]: > 100 µM | TGI [26]: > 100 µM | GI50 [27]: 61.8 µM | TGI [27]: > 100 µM | GI50 [28]: 75.5 µM | TGI [28]: > 100 µM | GI50 [29]: 97.8 µM | TGI [29]: > 100 µM | GI50 [30]: 33.8 µM | TGI [30]: > 100 µM | GI50 [31]: 66.1 µM | TGI [31]: > 100 µM | GI50 [32]: 39.5 µM | TGI [32]: > 100 µM | GI50 [33]: > 100 µM | TGI [33]: > 100 µM | GI50 [34]: > 100 µM | TGI [34]: > 100 µM | GI50 [35]: 71.2 µM | TGI [35]: > 100 µM | GI50 [36]: > 100 µM | TGI [36]: > 100 µM | GI50 [37]: > 100 µM | TGI [37]: > 100 µM | GI50 [38]: 21.6 µM | TGI [38]: 57.4 µM | GI50 [39]: > 100 µM | TGI [39]: > 100 µM | GI50 [40]: 56.6 µM | TGI [40]: > 100 µM | GI50 [41]: > 100 µM | TGI [41]: > 100 µM | GI50 [42]: > 100 µM | TGI [42]: > 100 µM | GI50 [43]: > 100 µM | TGI [43]: > 100 µM | GI50 [44]: 55.5 µM | TGI [44]: > 100 µM | GI50 [45]: 32.9 µM | TGI [45]: > 100 µM | GI50 [46]: > 100 µM | TGI [46]: > 100 µM | GI50 [47]: > 100 µM | TGI [47]: > 100 µM | GI50 [48]: 16.5 µM | TGI [48]: 36.8 µM | GI50 [49]: 35.1 µM | TGI [49]: > 100 µM | GI50 [50]: 14.5 µM | TGI [50]: > 100 µM | GI50 [51]: > 100 µM | TGI [51]: > 100 µM | GI50 [52]: > 100 µM | TGI [52]: > 100 µM | GI50 [53]: > 100 µM | TGI [53]: > 100 µM | GI50 [54]: 78.3 µM | TGI [54]: > 100 µM | GI50 [55]: 17.7 µM | TGI [55]: 54.6 µM | GI50 [56]: 18.3 µM | TGI [56]: 72.2 µM | GI50 [57]: > 100 µM | TGI [57]: > 100 µM | GI50 [58]: > 100 µM | TGI [58]: > 100 µM | GI50 [59]: > 100 µM | TGI [59]: > 100 µM
